What was measured:
[1] = test system: human pancreatic MiaPaCa-2 cells; assay: Tumor Cell Proliferation Assay (ATP Lite), MiaPaCa-2; format: cell-based; conditions: MIA PaCa-2, 96 h, 4 days
Experimental: (§1) Murine colon C26, human melanoma A375 and human pancreatic MiaPaCa-2 cells were plated in 96 well Corning white plates (1500 cells/well for C26, and 2000 cells/well for A375, and MiaPaCa-2) and cultured overnight at 37° C. in 5% CO2. Inhibitors were serially diluted in 100 DMSO and subsequently added to cells to reach a final concentration of 0.25% DMSO. The cells were incubated for 4 days in the presence of test compounds in cell growth media (DMEM with 10% fetal bovine serum, 2 mM glutamine for C26, and MiaPaCa-2, and RPMI with 10% fetal bovine serum, 2 mM glutamine for A375). Cell proliferation was quantitated using the ATP lite cell proliferation kit (Packard). Columns 2-5 show the concentration of compounds required to induce 50% cell death (IC50 in μM) of […].

Murine colon C26 cells = assay: Tumor Cell Proliferation Assay (ATP Lite), C26; format: cell-based; conditions: Mus musculus, 96 h, 4 days
Experimental: as §1

human MEK1 = human MEK1 (Homo sapiens, UniProt Q02750); assay: MEK-1 Enzyme Assay (LANCE-HTRF); format: biochemical; conditions: 100 nM MEK1, 15 μM ATP, 300 nM ERK2, two hours
Experimental: The activity of the compounds of the present invention may be determined by the following procedure: Inhibition of human MEK1 kinase activity was monitored with a homogenous, fluorescence based assay. The assay uses time resolved fluorescence resonance energy transfer to probe for phosphorylation of […] by MEK1. The assay is carried out in low volume 96 well microtiterplates. In a total volume of 15 μl, compounds are incubated with 100 nM MEK1, 15 μM ATP, 300 nM ERK2 employing a buffer containing 20 mM TRIS/HCl, 10 mM MgCl2, 100 μM NaVO4, 1 mM DTT, and 0.005% Tween 20 (pH 7.4). After two hours, 5 nM Europium-anti-PY20 (Perkin Elmer) and 50 nM Anti-GST-Allophycocyanin (CisBio) in buffer containing 50 mM EDTA and 0.05% BSA are added and the reaction incubated for one hour in the dark. Time-resolved fluorescence is measured using a LJL-Analyst (Molecular Devices) with an excitation wavelength of 340 nm and an emission wavelength of 665 nm. The final concentration of DMSO is 2%.

[2] = test system: human melanoma A375 cells; assay: Tumor Cell Proliferation Assay (ATP Lite), A375; format: cell-based; conditions: A-375, 96 h, 4 days
Experimental: as §1

Colo-205 xenograft = assay: In vivo efficacy, Colo-205 mouse xenograft model; conditions: male nude mice
Experimental: (§2) Male nude (nu/nu) mice were injected subcutaneously above the right foreleg with certain number of cells of human tumor cell lines such as Colo-205, A375 or MiaPaCa2. Tumors were measured with calipers one week after cells were implanted. Tumor length (l) and width (w) were measured and tumor volume was calculated with the equation l*w^2/2. […] Tumor volume and body weight were measured for each animal on Days 0, 4, 6, 8, 10, 12 and 14. Tumor volume and percent body weight were analyzed via Two-Way Repeated Measures Analysis of Variance (RM-ANOVA) followed by Fisher's post-hoc multiple pair-wise comparisons of treatment group means.

MiaPaCa2 xenograft = assay: In vivo efficacy, MiaPaCa2 mouse xenograft model; conditions: male nude mice
Experimental: as §2

human MEK1, sequence (Q02750 whole entry): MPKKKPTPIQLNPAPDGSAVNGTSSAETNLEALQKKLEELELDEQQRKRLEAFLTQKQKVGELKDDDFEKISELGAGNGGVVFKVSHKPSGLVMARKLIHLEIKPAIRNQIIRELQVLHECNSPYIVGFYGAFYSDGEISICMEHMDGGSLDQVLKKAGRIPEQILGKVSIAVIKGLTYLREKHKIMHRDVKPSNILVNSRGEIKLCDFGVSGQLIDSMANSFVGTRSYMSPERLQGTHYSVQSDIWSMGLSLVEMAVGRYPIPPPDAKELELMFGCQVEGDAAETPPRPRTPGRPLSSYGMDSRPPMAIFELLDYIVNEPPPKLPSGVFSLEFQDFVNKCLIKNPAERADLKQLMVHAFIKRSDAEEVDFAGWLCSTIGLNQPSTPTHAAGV

| Structure (SMILES) | IC50 [1] [nM] | IC50 (Murine colon C26 cells) [nM] | IC50 (human MEK1) [nM] | IC50 [2] [nM] | tumor growth inhibition (Colo-205 xenograft; daily 1.5 mg/kg, oral route) [%] | TGI (MiaPaCa2 xenograft; 33 μg/kg/day) [%] | TGI (MiaPaCa2 xenograft; 50 μg/kg/day) [%] | tumor growth inhibition (TGI) (Colo-205 xenograft; 50 μg/kg*day, oral route) [%] | tumor growth inhibition (Colo-205 xenograft; 150 μg/kg/day) [%] |
| --- | --- | --- | --- | --- | --- | --- | --- | --- | --- |
| O=C(N[C@@H]1CCC[C@@H](O)[C@H]1O)c1cc(Cl)ncc1Nc1ccc(I)cc1F (racemic) [(1), 2-Chloro-N-((1RS,2SR,3RS)-2,3-dihydroxy-cyclohexyl)-5-(2-fluoro-4-iodo-phenylamino)-sonicotinamide] | 2 | 2 | 34.5 | 2 |  |  |  |  |  |
| O=C(N[C@@H]1CCC[C@@H](O)[C@H]1O)c1c(F)cncc1Nc1ccc(I)cc1F (racemic) [(2)] | 4.5 | 5 | 74 | 1 |  |  |  |  |  |
| O=C(N[C@H]1CCC[C@H](O)[C@@H]1O)c1ccncc1Nc1ccc(I)cc1F (racemic) [(3), N-[(1SR,2RS,3SR)-2,3-dihydroxycyclohexyl]-3-[(2-fluoro-4-iodophenyl)amino]isonicotinamide] | 7.3 | 16 | 94.8 | 1.4 |  |  |  |  |  |
| N[C@@H]1CCC[C@@H](OC(=O)c2c(F)cncc2Nc2ccc(I)cc2F)[C@H]1O (racemic) [(4), 3-Fluoro-5-(2-fluoro-4-iodo-phenylamino)-isonicotinic acid (1RS,2SR,3RS)-3-amino-2-hydroxy-cyclohexyl ester] | 49 | 20 | 160 | 85.5 |  |  |  |  |  |
| O=C(N[C@@H]1CCC[C@@H](O)[C@H]1O)c1ccncc1Nc1ccc(Br)cc1F (racemic) [(5), 3-(4-Bromo-2-fluoro-phenylamino)-N-((1RS,2SR,3RS)-2,3-dihydroxy-cyclohexyl)-isonicotinamide] | 42.5 | 73 | 98 | 7.5 |  |  |  |  |  |
| O=C(N[C@@H]1CCC[C@@H](O)[C@H]1O)c1ccncc1Nc1ccc(Br)cc1Cl (racemic) [(6), 3-(4-Bromo-2-chloro-phenylamino)-N-((1RS,2SR,3RS)-2,3-dihydroxy-cyclohexyl)-isonicotinamide] | 75.3 | 113 | 38 | 16.8 |  |  |  |  |  |
| O=C(N[C@H]1CCC[C@H](O)[C@@H]1O)c1ccncc1Nc1ccc(I)cc1F [(7), N-((1S,2R,3S)-2,3-dihydroxycyclohexyl)-3-(2-fluoro-4-iodophenylamino)isonicotinamide] | 2120 | 5400 | 2670 | 274 |  |  |  |  |  |
| O=C(N[C@@H]1CCC[C@@H](O)[C@H]1O)c1ccncc1Nc1ccc(Br)cc1F [(9), 3-(4-bromo-2-fluorophenylamino)-N-((1R,2S,3R)-2,3-dihydroxycyclohexyl)isonicotinamide] |  |  |  |  | 98.5 |  |  |  |  |
| O=C(N[C@@H]1CCC[C@@H](O)[C@H]1O)c1ccncc1Nc1ccccc1F [(10), N-((1R,2S,3R)-2,3-Dihydroxy-cyclohexyl)-3-(2-fluoro-phenylamino)-isonicotinamide] | 74 | 150 | 189 | 21.5 |  |  |  |  |  |
| O=C(N[C@@H]1CCC[C@@H](O)[C@H]1O)c1ccncc1Nc1ccc(I)cc1F [Compound (8), N-[(1R,2S,3R)-2,3-dihydroxycyclohexyl]-3-[(2-fluoro-4-iodophenyl)amino]isonicotinamide] | 2.7 | 4.7 | 133 | 1.6 |  | 100.97 | 110.74 | 100.69 | 115.33 |
